Laboratory results as given in ChEMBL document CHEMBL1122453, “Structure-activity relationships in the antiinflammatory steroids: a pattern-recognition approach” (1983).
Activity calls are given as the source filed them. The rule behind the calls is not given here.

Columns and labels:
Rattus norvegicus [1] = species: Rattus norvegicus; test: Anti-inflammatory effect in rat granuloma assay, activity relative to hydrocortisone and hydrocortisone 21-acetate; type: functional
Homo sapiens [2] = species: Homo sapiens; test: Potency relative to fluocinolone 16,17-acetonide(Experimental vasoconstictor activity) in human; 15-45; type: functional
Rattus norvegicus [3] = species: Rattus norvegicus; test: Experimental relative rat granuloma activity (relative to hydrocortisone and hydrocortisone 21-acetate); 200-500; type: functional
Homo sapiens [4] = species: Homo sapiens; test: Potency relative to fluocinolone 16,17-acetonide(Experimental vasoconstictor activity) in human; 16-34; type: functional
Homo sapiens [5] = species: Homo sapiens; test: Potency relative to fluocinolone 16,17-acetonide(Experimental vasoconstictor activity) in human; 900-1080; type: functional
Homo sapiens [6] = species: Homo sapiens; test: Potency relative to fluocinolone 16,17-acetonide in the human vasoconstictor test; type: functional
Homo sapiens [7] = species: Homo sapiens; test: Potency relative to fluocinolone 16,17-acetonide(Experimental vasoconstictor activity) in human; 100-300; type: functional
Homo sapiens [8] = species: Homo sapiens; test: Potency relative to fluocinolone 16,17-acetonide(Experimental vasoconstictor activity) in human; type: functional
Homo sapiens [9] = species: Homo sapiens; test: Potency relative to fluocinolone 16,17-acetonide(Experimental vasoconstictor activity) in human;NA =Not active; type: functional, organism-based

Which results are given for `C[C@]12C=CC(=O)C=C1[C@@H](F)C[C@H]1[C@@H]3C[C@@H](O)[C@](O)(C(=O)CO)[C@@]3(C)C[C@H](O)[C@@]12F` [FLUOCINOLONE]?
Potency (Rattus norvegicus [1]): 19.7; Potency (Homo sapiens [2]): 15

`C[C@@H]1C[C@H]2[C@@H]3C[C@H](F)C4=CC(=O)C=C[C@]4(C)[C@@]3(F)[C@@H](O)C[C@]2(C)[C@@]1(O)C(=O)CO` [FLUMETHASONE] was tested. Which Potency (Rattus norvegicus [3]) did it give?
Its Potency is 200.

How did the Potency (Homo sapiens [4]) turn out when `CCCCC(=O)O[C@]1(C(=O)CO)CCC2C3CCC4=CC(=O)CCC4(C)C3C(O)CC21C` (stereo partly specified) was run?
Its Potency is 16.

For `CCCC(=O)O[C@]1(C(C)=O)CCC2C3C[C@H](F)C4=CC(=O)C=CC4(C)[C@@]3(F)C(O)CC21C` (stereo partly specified), which Potency (Homo sapiens [5]) is on record?
Its Potency is 900.

Which results are given for `CC1(C)O[C@@H]2C[C@H]3[C@@H]4C[C@H](F)C5=CC(=O)CC[C@]5(C)[C@H]4[C@@H](O)C[C@]3(C)[C@]2(C(=O)CO)O1` [FLURANDRENOLIDE]?
Potency (Homo sapiens [6]): 12; Potency (Homo sapiens [7]): 100

How did the Potency (Rattus norvegicus [1]) turn out when `CC1(C)O[C@@H]2C[C@H]3[C@@H]4C[C@H](F)C5=CC(=O)C=C[C@]5(C)[C@@]4(F)[C@@H](O)C[C@]3(C)[C@]2(C(=O)CO)O1` [FLUOCINOLONE ACETONIDE] was run?
The Potency was 450.

What about the Potency (Homo sapiens [8]) of the same compound?
Its Potency is 100.

What does the source list for `CC1(C)O[C@@H]2C[C@H]3[C@@H]4CCC5=CC(=O)C=C[C@]5(C)[C@H]4[C@@H](O)C[C@]3(C)[C@]2(C(=O)CO)O1` [DESONIDE]?
Potency (Homo sapiens [9]): inactive; Potency (Rattus norvegicus [1]): 66.2
